Results from ChEMBL document CHEMBL3272268 (J Med Chem, 1978).

Target: Serotonin (5-HT) receptor
Assay: Competitive antagonist activity at 5-HT serotonin receptor in Sprague-Dawley rat stomach fundus model assessed as inhibition of 5-HT-induced contractile response

pA2: 5.45
SMILES: COc1ccc(OC)c(CCCN(C)C)c1
